Structures can show the parent of a compound that is named as a salt.

The assay relates to SJSA, an osteocarcinoma cell line. The assay can be described thus: antiproliferative activity assay (tetrazolium dye, MTT) in SJSA cells. The settings on record: cell-based MTT assay, inhibition of cell proliferation, read-out: TT IC50. Here is the method: The pharmacological properties of the compounds of this invention may be confirmed by a number of pharmacological assays. The exemplified antiproliferative activity assay which follows has been carried out with the compounds according to the invention.
Cell proliferation was evaluated by the tetrazolium dye assay according to the procedure of Denizot and Lang (Denizot, F. and Lang, R. (1986) Rapid colorimetric assay for cell growth and survival. Modification to the terrazolium dye procedure giving improved sensitivity and reliability. J. Immunol. Methods 89, 271-277). The cell line used was SJSA, an osteocarcinoma cell line obtained from the American Type Cell Culture Collection (ATCC; Rockville, Md.). The cells were grown in PRMI with 10% FBS (Fetal Bovine Serum, Invitrogen).
Cells were plated at the appropriate seeding density to give logarithmic growth over the course of the assay in a 96-well tissue culture plate. Plates were incubated overnight at 37° C. in a humidified incubator with 5% CO2. The next day, test compounds were serially diluted 1:3 in the appropriate medium containing 3% DMSO. One-tenth final volume of each dilution was added […] to the plates containing cells. The same volume of 3% DMSO in medium was added to a row of control wells. Thus, the final concentration of DMSO in all wells was 0.3%. The plates were returned to the incubator, and at set time points (determined by their growth curves) plates were analyzed as follows: 3-(4,5-dimethylthiazole-2-yl)-2,5-diphenyl-2H-tetrazolium bromide (thiazolyl blue; MTT; Sigma) was added to each well to yield a final concentration of 1 mg/ml. Plates were returned to the incubator for 2.5 hours. The MTT-containing medium was removed and the resulting formazan metabolite was solubilized in 100% ethanol with shaking for 15 minutes at room temperature. Absorbances were read in a microtiter plate reader at a wavelength of 570 nm with a 650 nm reference. Percent inhibition (% INH) was calculated by subtracting the blank from all wells, then subtracting the ratio of the average absorbance of each triplicate (SAVE) by the average of the controls (CAVE) from 1.00. The final product was then multiplied by 100 (% INH=(1.00−SAVE/CAVE)×100). The concentration at which 50% inhibition (IC50) of cell proliferation is obtained was determined from the linear regression of a plot of the logarithm of the concentration versus percent inhibition.
In the case of `COc1cc(NC(=O)[C@H]2[C@H](c3cccc(Cl)c3F)[C@@](C#N)(c3ccc(Cl)cc3F)[C@H](CC(C)(C)C)N2C)ccc1C(=O)O` (racemic) [Example 42, 4-{[(2R,3S,4R,5S)-3-(3-chloro-2-fluoro-phenyl)-4-(4-chloro-2-fluoro-phenyl)-4-cyano-5-(2,2-dimethyl-propyl)-1-methyl-pyrrolidine-2-carbonyl]-amino}-2-methoxy-benzoic acid], the half-maximal inhibitory concentration (IC50) came to 1360 nM.

For `COc1cc(C(=O)O)ccc1NC(=O)[C@H]1[C@H](c2cccc(Cl)c2F)[C@@](C#N)(c2ccc(Cl)cc2F)[C@H](CC(C)(C)C)N1CCCCCO` (racemic) [Example 56, rac-4-{[(2R,3S,4R,5S)-3-(3-chloro-2-fluoro-phenyl)-4-(4-chloro-2-fluoro-phenyl)-4-cyano-5-(2,2-dimethyl-propyl)-1-(5-hydroxy-pentyl)-pyrrolidine-2-carbonyl]-amino}-3-methoxy-benzoic acid], the IC50 was found to be 30 nM.

In the case of `COc1cc(NC(=O)[C@H]2[C@H](c3cccc(Cl)c3F)[C@@](C#N)(c3ccc(Cl)cc3F)[C@H](CC(C)(C)C)N2CCC2CCCCC2)ccc1C(=O)O` (racemic) [Example 48, 4-{[(2R,3S,4R,5S)-3-(3-chloro-2-fluoro-phenyl)-4-(4-chloro-2-fluoro-phenyl)-4-cyano-1-(2-cyclohexyl-ethyl)-5-(2,2-dimethyl-propyl)-pyrrolidine-2-carbonyl]-amino}-2-methoxy-benzoic acid trifluoroacetate salt], the IC50 came out at 430 nM.

`CN1[C@@H](CC(C)(C)C)[C@](C#N)(c2ccc(Cl)cc2F)[C@@H](c2cccc(Cl)c2F)[C@@H]1C(=O)Nc1ccc(C(=O)O)c(F)c1` [Example 26, 4-{[(2R,3S,4R,5S)-3-(3-chloro-2-fluoro-phenyl)-4-(4-chloro-2-fluoro-phenyl)-4-cyano-5-(2,2-dimethyl-propyl)-1-methyl-pyrrolidine-2-carbonyl]-amino}-2-fluoro-benzoic acid trifluoroacetate salt]: the concentration for half-maximal inhibition (IC50) came out at 320 nM.

Take `CCCCN1[C@@H](CC(C)(C)C)[C@](C#N)(c2ccc(Cl)cc2F)[C@@H](c2cccc(Cl)c2F)[C@@H]1C(=O)Nc1ccc(C(=O)O)c(OC)c1` (racemic) [Example 43, 4-{[(2R,3S,4R,5S)-1-butyl-3-(3-chloro-2-fluoro-phenyl)-4-(4-chloro-2-fluoro-phenyl)-4-cyano-5-(2,2-dimethyl-propyl)-pyrrolidine-2-carbonyl]-amino}-2-methoxy-benzoic acid]: the concentration for half-maximal inhibition (IC50) worked out at 1140 nM.

With `CCN1[C@@H](CC(C)(C)C)[C@](C#N)(c2ccc(Cl)cc2F)[C@@H](c2cccc(Cl)c2F)[C@@H]1C(=O)Nc1ccc(C(=O)O)cc1` (racemic) [Example 33, 4-{[(2R,3S,4R,5S)-3-(3-chloro-2-fluoro-phenyl)-4-(4-chloro-2-fluoro-phenyl)-4-cyano-5-(2,2-dimethyl-propyl)-1-ethyl-pyrrolidine-2-carbonyl]-amino}benzoic acid], the IC50 stood at 1310 nM.

As for `CN1[C@@H](CC(C)(C)C)[C@](C#N)(c2ccc(Cl)cc2F)[C@@H](c2cccc(Cl)c2F)[C@@H]1C(=O)Nc1ccc(C(C)(C)C(=O)O)cc1` [Example 27, 2-(4-{[(2R,3S,4R,5S)-3-(3-chloro-2-fluoro-phenyl)-4-(4-chloro-2-fluoro-phenyl)-4-cyano-5-(2,2-dimethyl-propyl)-1-methyl-pyrrolidine-2-carbonyl]amino}-phenyl)-2-methyl-propionic acid], the half-maximal inhibitory concentration (IC50) was 1950 nM.

With `C=CCCCN1[C@@H](CC(C)(C)C)[C@](C#N)(c2ccc(Cl)cc2F)[C@@H](c2cccc(Cl)c2F)[C@@H]1C(=O)Nc1ccc(C(=O)O)c(OC)c1` (racemic) [Example 47, 4-{[(2R,3S,4R,5S)-3-(3-chloro-2-fluoro-phenyl)-4-(4-chloro-2-fluoro-phenyl)-4-cyano-5-(2,2-dimethyl-propyl)-1-pent-4-enyl-pyrrolidine-2-carbonyl]-amino}-2-methoxy-benzoic acid], the IC50 was determined as 620 nM.

On to `C#CCN1[C@@H](CC(C)(C)C)[C@](C#N)(c2ccc(Cl)cc2F)[C@@H](c2cccc(Cl)c2F)[C@@H]1C(=O)Nc1ccc(C(=O)O)cc1OC` [Example 62, 4-{[(2R,3S,4R,5S)-3-(3-chloro-2-fluoro-phenyl)-4-(4-chloro-2-fluoro-phenyl)-4-cyano-5-(2,2-dimethyl-propyl)-1-prop-2-ynyl-pyrrolidine-2-carbonyl]-amino}-3-methoxy-benzoic acid], for which the 50% inhibitory concentration (IC50) came out at 80 nM.
